Counter-ions that a name gives are not always drawn.
What was measured:
male Swiss Webster mice = assay: Warm-water tail immersion assay, agonism (single dose screen and potency); assay type: in vivo, mouse; settings: for ED50: Mus musculus, sc, read-out: potency ED50 [95% CI] mg/kg, s.c., 20 min prior to tail withdrawal latency measurement, male Swiss Webster mice; for percent MPE / antinociception compared to the vehicle group: single dose 10 mg/kg s.c.; for percent MPE: withdrawal latency 20 min after administration; for antinociception compared to the vehicle group: 20 min
DOR [1] = molecular target: T1, DOR (Homo sapiens, UniProt P41143); assay: Competitive radioligand binding assay, DOR
T1 construct: expressed in transfected cells; membrane homogenate

MOR [2] = molecular target: T2, MOR (Mus musculus, UniProt P42866); assay: Competitive radioligand binding assay, MOR; parameters: expressed in transfected cells; membrane homogenate; settings: for radioligand binding affinity (Ki, nM) MOR: [3H]naloxone, mMOR-CHO membranes
MOR [3] = molecular target: T2, MOR; assay: [35S]-GTPγS functional assay, MOR; assay type: biochemical; parameters: expressed in transfected cells; membrane homogenate; settings: for EC50: mMOR-CHO membranes; for Emax: read-out: [35S]-GTPγS functional activity MOR Emax (%)
DOR [4] = molecular target: T1, DOR; assay: [35S]-GTPγS functional assay, DOR; assay type: biochemical; settings: for EC50: hDOR-CHO membranes; for Emax: percent of SNC80 full agonist control
KOR [5] = molecular target: T3, KOR (Mus musculus, UniProt P33534); assay: Competitive radioligand binding assay, KOR; settings: for radioligand binding affinity (Ki, nM) KOR: [3H]diprenorphine, mKOR-CHO membranes; for selectivity ratio δ/κ / selectivity ratio μ/κ: ratio of Ki values
T3 construct: expressed in transfected cells; membrane homogenate

KOR [6] = molecular target: T3, KOR; assay: [35S]-GTPγS functional assay, KOR; assay type: biochemical; settings: for EC50: mKOR-CHO membranes; for Emax: percent of U50,488 full agonist control

Structure (SMILES) | ED50 (male Swiss Webster mice) [mg/kg] | percent MPE (male Swiss Webster mice) [%] | Ki (DOR [1]) [nM] | Ki (MOR [2]) [nM] | EC50 (MOR [3]) [nM] | Emax (MOR [3]) [%] | EC50 (DOR [4]) [nM] | Emax (DOR [4]) [%] | Ki (KOR [5]) [nM] | radioligand binding affinity (Ki, nM) KOR (KOR [5]) | antinociception compared to the vehicle group (male Swiss Webster mice) | selectivity ratio δ/κ (KOR [5]) | EC50 (KOR [6]) [nM] | Emax (KOR [6]) [%] | selectivity ratio μ/κ (KOR [5]) | radioligand binding affinity (Ki, nM) DOR (DOR [1]; [3H]diprenorphine, hDOR-CHO membranes) | radioligand binding affinity (Ki, nM) MOR (MOR [2])
CN(C(=O)CCc1ccoc1)[C@H]1CC[C@@]2(O)[C@H]3Cc4cccc5c4[C@@]2(CCN3CC2CC2)[C@H]1O5 [Compound 1, 17-Cyclopropylmethyl-4,5α-epoxy-6α-[3′-(furan-3″-yl)N-methylpropanamido]-14β-hydroxymorphinan Hydrochloride] | 0.553 | ≥ 80 | 48.6 ± 6.51 | 7.74 ± 0.69 | 20 ± 3.49 | 11.5 ± 0.81 | 137 ± 26.5 | 56.4 ± 2.6 | 0.48 ± 0.07 | subnanomolar |  |  |  |  |  |  | 
O=C(CCc1ccoc1)N[C@H]1CC[C@@]2(O)[C@H]3Cc4cccc5c4[C@@]2(CCN3CC2CC2)[C@H]1O5 [Compound 2, 17-Cyclopropylmethyl-4,5α-epoxy-6α-[3′-(furan-3″-yl)propanamido]-14β-hydroxymorphinan Hydrochloride] |  |  | 154 ± 26.5 | 54.5 ± 2.01 | 200 ± 63.1 | 8.8 ± 0.55 | 429 ± 62.6 | > 80 | 161 ± 11.8 |  | lack of significant antinociceptive effect | 1 | 1010 ± 176 | 66.1 ± 5.2 |  |  | 
CN(C(=O)CCc1ccoc1)[C@@H]1CC[C@@]2(O)[C@H]3Cc4cccc5c4[C@@]2(CCN3CC2CC2)[C@H]1O5 [Compound 3, 17-Cyclopropylmethyl-4,5α-epoxy-6β-[3′-(furan-3″-yl)-N-methylpropanamido]-14β-hydroxymorphinan Hydrochloride] |  |  | 891 ± 52.5 | 43.8 ± 2.85 | 224 ± 44.9 | 13.8 ± 1.86 | 5780 ± 829 | 66.9 ± 3.52 | 34.5 ± 6.27 |  | lack of significant antinociceptive effect | 26 | 246 ± 29.2 | 86.42 ± 0.63 | 1 |  | 
O=C(CCc1ccoc1)N[C@@H]1CC[C@@]2(O)[C@H]3Cc4cccc5c4[C@@]2(CCN3CC2CC2)[C@H]1O5 [Compound 4, 17-Cyclopropylmethyl-4,5α-epoxy-6β-[3′-(furan-3″-yl)propanamido]-14β-hydroxymorphinan Hydrochloride] |  |  | 749 ± 59.1 | 17.3 ± 1.68 | 185 ± 38 | 14.2 ± 1.27 | 1690 ± 116 | 55.8 ± 2.39 | 8.37 ± 1.44 |  |  | 90 | 117 ± 21.2 | 81.4 ± 7.72 | 2 |  | 
CN(C(=O)CCc1ccoc1)[C@H]1CC[C@@]2(O)[C@H]3Cc4ccc(O)c5c4[C@@]2(CCN3CC2CC2)[C@H]1O5 [Compound 5, 17-Cyclopropylmethyl-3,14β-dihydroxy-4,5α-epoxy-6α-[3′-(furan-3″-yl)-N-methylpropanamido]morphinan Hydrochloride] |  |  | 0.59 ± 0.06 | 0.18 ± 0.02 | 0.37 ± 0.05 | 17.9 ± 1.81 | 0.75 ± 0.09 | 68.3 ± 1 | 0.13 ± 0.02 | subnanomolar |  |  |  |  |  | subnanomolar | subnanomolar
CN(C(=O)CCc1ccoc1)[C@@H]1CC[C@@]2(O)[C@H]3Cc4ccc(O)c5c4[C@@]2(CCN3CC2CC2)[C@H]1O5 [Compound 7, 17-Cyclopropylmethyl-3,14β-dihydroxy-4,5α-epoxy-6β-[3′-(furan-3″-yl)-N-methylpropanamido]morphinan Hydrochloride] | 0.443 | ≥ 80 | 8.42 ± 0.9 | 0.53 ± 0.06 | 4.3 ± 0.47 | 12.2 ± 0.92 | 19.2 ± 1.62 | 51.4 ± 2.78 | 0.28 ± 0.05 | subnanomolar |  |  | 0.99 ± 0.04 | 102 ± 1.05 |  |  | subnanomolar
CN(C(=O)CCc1ccco1)[C@H]1CC[C@@]2(O)[C@H]3Cc4cccc5c4[C@@]2(CCN3CC2CC2)[C@H]1O5 [Compound 9, 17-Cyclopropylmethyl-4,5α-epoxy-6α-[3′-(furan-2″-yl)N-methylpropanamido]-14β-hydroxymorphinan Hydrochloride] |  |  | 46.8 ± 8.37 | 14.1 ± 1.4 | 76.5 ± 48.5 | 11.2 ± 1.55 | 212 ± 33.8 | 70.5 ± 5.9 | 1 ± 0.18 |  | lack of significant antinociceptive effect | 47 | 18.4 ± 1.05 | 91.4 ± 1.46 | 14 |  | 
